{"source": "patent US20210038732A1", "about": "“ANTICANCER MICRORNA AND LIPID FORMULATIONS THEREOF” (INTERNA TECHNOLOGIES B.V., priority 2018, published 2021)", "key": {"[1]": {"system": "genes downregulated in at least three cell lines", "assay": "Annotation clustering of downregulated genes with DAVID software", "design": "species or system human", "source_text": "For clustering and pathway analysis, a bigger gene set was required. […] Other clusters contained genes with roles in angiogenesis, unfolded protein response, chemotaxis, protein transport, nucleoside metabolism, glycosylation, oncogenesis, wound healing. […] These 161 genes are ERMP1, MCL1, ZDHHC18, KIAA1147, IDS, EIF4B, ETS1, TXLNA, NT5E, WSB2, PLAUR, LRRC40, PTPLB, SLC15A1, NCEH1, IL17RD, STMN1, AIMP2, PHACTR2, GALNT1, LAMC2, SCP2, SLC26A2, LUZP1, SHMT2, UBP1, PHLDA2, ST5, ENDOD1, CGNL1, MARCKSL1, RAB11FIP5, CCND1, RUSC1, FAM168B, ZC3H7B, PPTC7, SLC39A5, ACSS2, TPP1, HYOU1, DCTN5, CRKL, WDFY2, WDR82, SLC6A12, CDK6, SULF2, TWISTNB, ATP5F1, ALDH9A1, TOR4A, NET1, RSF1, NUP50, ZMAT3, AP2M1, MPP2, ITGB3, GALNT14, SLC35D1, PPARGC1A, TBL1XR1, MSANTD3, CLSTN1, PITPNB, CECR2, KIAA1644, ARHGAP29, KIAA1191, GREB1, PIK3R1, TNFRSF21, SEPN1, SYNRG, LRP4, ZNF365, CRYAA, MED21, GNAI3, ATP5SL, UBE2L6, ANKRD13A, GCH1, NIPA1, TRIM62, USP39, HEG1, DCAF7, LRRC8A, SOX5, IRF1, MORC4, UNC119B, FAF2, SLC30A1, C1QBP, ST3GAL4, TRIB2, TBC1D5, TMPPE, MAPK8, CBX1, CADM1, CCDC28A, YWHAZ, ERAP2, STON2, AP5M1, TGFB2, CYTH1, FAM20B, DPY19L1, ARHGAP19, LPAR3, LMLN, NUDT15, PLAU, VAMP8, HHAT, AGPAT1, ATP8B2, ACPL2, SCAMP4, LAT2, OSMR, NUDT21, HPRT1, STARD7, GABPA, CDC42EP2, THBS4, ATP6V1B2, PRNP, GFPT1, MAX, KRAS, CNOT6, NUDT3, RFWD3, APPL1, SLC23A2, BOD1, PDE3A, SLC30A7, CEP41, NOTCH2, RGS2, CDC42EP4, TP53INP1, SQSTM1, DDAH1, SLC35D2, FOCAD, GPATCH11, CBL, TMEM30B, HFE, PLEKHB2, ARPC5, and ABI2. Among these genes, NT5E, TNFRSF21, YWHAZ, MAPK8, PLAU, PLAUR, NOTCH2, ETS1, IL17RD, CDK6, EIF4B, and MCL1 are particularly interesting for their crucial involvement in the cell cycle pathway, in immune activation, as well as in cell movement. […] ETS1, YWHAZ, MPP2, PLAU, CDK4, CDK6, EIF4B, RAD51, CCNA2, STMN1, and DCAF7 are of particular interest for their crucial involvement in regulation of the cell cycle."}, "[2]": {"system": "4T1", "assay": "Cell viability (MTS assay or cell count)", "type": "cell-based, mouse", "conditions": "10 nM; TNBC 4T1; normalized to mock", "procedure": "Depending on cancer cell type 3000-6000 cells were seeded in a 96 well plate. After cells attached, they were transfected with different concentrations of miRNA-193a and viability was measured at different time points. Viability measurement was performed using CellTiter 96 AQueous One Solution Cell Proliferation Assay (Promega). 20 μL of MTS reagent was added to 100 μL of media in each well in 96-well plate and incubated for 2 hours at 37° C. Absorbance was measured at 490 nm for each sample in 96 well plate reader.\nDifferent biological effects of miRNA-193a-3p have been tested in various cancer cell lines (see Table 13). For this, various cells were treated with miRNA-193a at different concentrations (1, 3, 10 nM). For all experiments controls (untreated, mock and scrambled) were measured. […] Data shown in Table 13 are the results for miRNA-193a at 10 nM concentration at indicated time points. All the results have been quantified and normalized to the mock control.\nmiRNA-193a treatment in various cancer cell lines decreased cell viability over time as measured by either an MTS assay or by cell count. It enhanced apoptosis induction over time as measured by a caspase 3/7 apoptosis assay. […] It is of note that due to intrinsic characteristics and gene mutation status of each cell line, performing one method to detect apoptosis is not always ideal for all cell lines."}, "[3]": {"system": "A2058 melanoma cells", "assay": "Malachite Green Phosphate Assay (free phosphate generation)", "type": "cell-based, human", "conditions": "miRNA-193a-3p at 10 nM, vs untreated, mock, scrambled", "procedure": "2000 A2058 melanoma cells were seeded per well in a 96 well plate. 24h after seeding, cells were transfected with different concentrations of miRNA-193a-3p, scrambled control, siNT5E and siPool as control. Malachite Green Phosphate Assay (Sigma Aldrich) was used to measure the liberation of phosphate from nucleoside triphosphates ATP following inhibition of CD39 (ENTPD1) and CD73 (NT5E) as target genes of miRNA-193a-3p 24h and 48h post transfection. The rapid colour formation from the reaction can be conveniently measured on a plate reader (600-660 nm)."}}}
{"substance": "miRNA-193a: duplex of the miRNA-193a-3p of SEQ ID NO: 218 (mimic, sense) with antisense strand SEQ ID NO: 219; naked in vitro, formulated in vivo (sense UGGGACUUUGUAGGCCAGUUTT; antisense AACUGGCCUACAAAGUCCCAGU; chemistry not given here; listed as Homo sapiens)", "values": [{"measurement": "Enrichment score (ES)", "setting": "[1]; Gene cluster Angiogenesis", "result": 2.17}, {"measurement": "Enrichment score (ES)", "setting": "[1]; Gene cluster Apoptosis", "result": 2.55}, {"measurement": "Enrichment score (ES)", "setting": "[1]; Gene cluster Chemotaxis", "result": 1.66}, {"measurement": "Enrichment score (ES)", "setting": "[1]; Gene cluster Glycosylation", "result": 1.47}, {"measurement": "Enrichment score (ES)", "setting": "[1]; Gene cluster Immune activation", "result": 1.16}, {"measurement": "Enrichment score (ES)", "setting": "[1]; Gene cluster Nucleoside metabolism", "result": 1.49}, {"measurement": "Enrichment score (ES)", "setting": "[1]; Gene cluster Oncogenesis", "result": 1.37}, {"measurement": "Enrichment score (ES)", "setting": "[1]; Gene cluster Protein transport", "result": 1.51}, {"measurement": "Enrichment score (ES)", "setting": "[1]; Gene cluster Unfolded protein response", "result": 1.84}, {"measurement": "Enrichment score (ES)", "setting": "[1]; Gene cluster Wound healing", "result": 1.18}, {"measurement": "Viability (96 h)", "setting": "[2]", "result": "↓ (Viability > 50%)"}, {"measurement": "Free phosphate generation", "setting": "[3]", "result": "reduced the level of free phosphate production"}]}
